Reference: patent US9210928B2, “Plant development control composition” (Syngenta Crop Protection, LLC, priority 2008, dated 2015)

Test system: excised Arabidopsis nodes
Experiment: Axillary bud outgrowth assay in Arabidopsis stem sections
Type: in vivo
Conditions: 100 μM inhibitor, 1 μM NAA; Col-0; FIG. 5
Description: Axillary bud outgrowth assay in Arabidopsis stein sections—The assays were performed essentially as described (40) with the following modifications. Small Petri dishes (50 mm diameter, 20 mm depth) were filled with 10 ml of ATS (39) supplemented with 1% agar and 1% sucrose. Inhibitors and α-naphthalene acetic acid (NAA) were added to the agar before pouring to give 100 μM and 1 μM, respectively. Thus, when the central strip was cut out of the agar, both the apical and basal media contained both NAA and inhibitor. Any nodes in which the apical end had curled out of the media or which bud length was less than 2 mm at the end of the experiment were discounted. Measurement of the shoot length was performed every 24 hours. For each assay a logistic curve was fitted using Genstat (10th edition, VSN international) with the fitcurve directive and the lag phase was calculated by extrapolating the linear part of the curve and the initial plateau (see supplementary methods). The x value of where these two lines intersected represented the lag phase.
A logistic curve, y=A+C/(1+e^−B(t−m)), was fitted to the data for each shoot using GenStat (10th edition). The lag phase was then calculated using the equation m−(2/B) which effectively gave the t value (time) of the intercept of the two extrapolated lines from the linear part of the curve and the initial plateau.
Stimulation of shoot branching in Arabidopsis stem sections by application of inhibitor—Auxin inhibits the outgrowth of axillary buds in wild-type Arabidopsis plants. In the AtCCD7 and AtCCD8 null mutants (max3 and max4, respectively) the response to auxin is reduced, presumably due to a block in formation of an apocarotenoid hormone (recently shown (17,18) to be strigolactone or a related compound) that suppresses branching (19), and axillary buds extend earlier, leading to formation of side branches. An in vitro assay was previously developed in which the growth of axillary buds from isolated sections of Arabidopsis stem was used to assess max mutants (40). […]

Compound | effect on timing of bud outgrowth (in words)
COc1ccc(C(=O)N(O)Cc2ccccc2)cc1 [Compound F1, N-benzyl-4-methoxybenzoyl hydroxamic acid] | relatively small activity
COc1ccc(C(=O)N(O)Cc2ccc(F)cc2)cc1 [Compound F2, N-(4-fluorobenzyl)-4-methoxybenzoyl hydroxamic acid] | relatively small activity
